The values that follow come from US10836768B2, “N-acyl-(3-substituted)-(8-substituted)-5,6-dihydro-[1,2,4]triazolo[4,3-a]pyrazines as selective NK-3 receptor antagonists” (OGEDA SA, priority 2013, dated 2020).

Data set [1] can be described thus: Determination of plasma protein binding (equilibrium dialysis). Type of data set: in vitro ADME. The following applies: bound drug fraction to plasma protein; 4 hours at 37° C. The source says:
Determination of Plasma Protein Binding
The pharmacokinetic and pharmacodynamic properties of chemicals/drugs are largely a function of the reversible binding of chemicals to plasma or serum proteins. […] Consequently, the extent of the plasma protein binding (PPB) of a compound influences its action as well as its distribution and elimination.
The determination of plasma protein binding (PPB) of a compound is enabled by equilibrium dialysis, an accepted and standard method for reliable estimation of the non-bound drug fraction in plasma. RED (Rapid Equilibrium Dialysis) device insert is made of two side-by-side chambers separated by an O-ring-sealed vertical cylinder of dialysis membrane (MWCO ˜8,000). […] After 4 hours incubation at 37° C. under shaking, an aliquot is removed from each chamber and analyzed by a LC-MS/MS procedure enables the determination of both free and bound drug.
The “free fraction” may be calculated as 100%−% rPPB (i.e. the complementary percentage of that disclosed in Table 4, corresponding to the drug concentration that is unbound and therefore available to engage biological target and elicit pharmacological activity).

Data set [2] deals with circulating levels of luteinizing hormone (LH). Kind of data set: Castrated male rat model, circulating LH (oral dosing). The class given is in vivo. The following applies: castrated male SD rats, single oral dose less than or equal to 30 mg/kg, p<0.05. The method, then: In vivo assay to assess compound activity in rat (oral dosing)
Castrated male rat model to assess the effect of compound of invention on circulating levels of luteinizing hormone (LH)
The effect of compounds of the invention to inhibit luteinizing hormone (LH) secretion is determined by the following biological studies.
In humans and rodents, castration is well-precedented to permit heightened, persistent GnRH signaling and consequent elevation of circulating LH. Thus, a castrated rat model is used to provide a broad index for measurement of LH inhibition as a marker of test compound inhibition of the GnRH signaling pathway.
Castrated adult male Sprague-Dawley (SD) rats (150-175 g,) were purchased from Janvier (St Berthevin, France). All animals were housed 2 per cage in a temperature-controlled room (22±2° C.) and 50±5% relative humidity with a 12 hour/12 hour light/dark cycles (lights off at […]). The animals were allowed 3 weeks of postoperative recovery prior to study. Animals were handled on a daily basis. Standard diet and tap water were provided ad libitum. Animal cage litters were changed once a week. On the study day, animals were acclimated to the procedure room for a period of one hour prior to the initiation of the experiment.
Compounds of the invention were formulated in 0.5% methyl cellulose.
After basal sampling (TO) a single dose of compounds of the invention or vehicle was administrated orally to rats. Blood samples were then collected at several time points post dosing (45, 90, 150, 300 and 420 minutes). Blood samples were obtained via tail vein bleed, drawn into EDTA-containing tubes and centrifuged immediately. Plasma samples were collected and stored in a −80° C. freezer until assayed. Serum LH levels were determined using radioimmunoassay kit from RIAZEN—Rat LH, Zentech (Liege, Belgium). Baseline was defined as the initial basal blood sample.

The subject of the next data set is plasma estradiol levels. As to the kind of experiment: Estradiol circulating level in female rats. The following applies: adult female rats, 10 mg/kg b.i.d. oral, two consecutive estrous cycles (FIG. 3). Type of data set: in vivo, rat. The method, then:
Effect of compounds of the invention on Estradiol circulating level in female rats The aim of this study was to evaluate the effect of compounds of the invention on plasma estradiol levels following oral administration at 10 mg/kg (b.i.d.) for a period of 10 days in female rats.
Briefly the experimental methods used for this study were as follows: Two groups of adult, female rats (Sprague-Dawley, −320 g) were treated in-phase with their individual estrous cycles. Thus, treatment was started in the proestrus phase (coincident with peak estradiol levels, as shown on Day 1 in FIG. 3) and rats were dosed twice daily (˜9 h30 and 17 h30) by oral administration either with a compound of the invention at 10 mg/kg or with the vehicle for the control group. Compounds of the invention were prepared in a dose formulation of pyrogen-free water with 0.5% methylcellulose. Estradiol levels were determined for all groups by ELISA performed on plasma samples derived from blood collections taken at 30 minutes before the daily, 9 h30 test article administration on all days presented in FIG. 3.

The next data set concerns ovariectomized ewes. As to the kind of experiment: In vivo assay in OVX ewes, thermoregulation. The following applies: 1 mg/kg i.v. The arrangement: species or system ewe. The source says: In Vivo Assay in OVX Ewes-Activity in Thermoregulation Experimental Methods: Evaluation of Thermoregulation in OVX Ewe […] After 4 months recovery, animals were acclimatised to housing in single pens for a period of 7 days with ad libitum access to water and […] lucerne hay. One day prior to experimentation, the animals received a jugular vein cannula ([…], Tuta Laboratories, Lane Cove, Australia). The cannulo were kept patent with heparinised saline. […] Animals were fed at 12 h00. Rectal temperatures were monitored with a probe at hourly intervals throughout the experiment, starting at 7 h40 and concluding at 15 h40.

The subject of the next data set is postmenopausal women. Kind of data set: Phase 2a clinical trial, menopausal hot flashes. Type of data set: in vivo, human. The following applies: 90 mg BID. As for the experimental part:
Clinical Evaluation of Compound No 5 for the Treatment of Menopausal Hot Flashes The study objective is to evaluate the effect of compound no 5 on the severity and frequency of hot flashes in postmenopausal women. The Phase 2a clinical trial was conducted in 80 patients, divided over 2 treatment groups of 40 patients each. […] The Phase 2a trial was double blind and randomized. This Phase 2a trial was conducted on healthy menopausal women (40-65 y) experiencing at least 49 moderate or severe hot flashes or night sweats over a period of 7 consecutive days in the screening period (maximum of 4 weeks). […] The weekly number of hot flashes was calculated in two ways: cumulatively for all severity grades, and cumulatively but leaving out the number of mild hot flashes. Hot Flash Frequencies were calculated for weeks 4 and 12. […] This score is an accepted method to assess the overall severity of the hot flash burden and is calculated weekly. […] The Hot Flash Score (based on severity and frequency) is calculated as follows: day-score=(number of mild hot flashes/day×1)+(number of moderate hot flashes/day×2)+(number of severe hot flashes/day×3) • The weekly hot flash score is calculated: […] […]

Data set [3] deals with women diagnosed with PCOS. Kind of data set: Phase 2a clinical trial, PolyCystic Ovary Syndrome (PCOS). The following applies: 180 mg QD. The class given is in vivo, human. The method, then:
Clinical Evaluation of Compound No 5 for the Treatment of PolyCystic Ovary Syndrome (PCOS)
The study objectives are to evaluate the effect of compound no 5 on the serum levels of Total Testosterone (TT), Luteinizing Hormone (LH), Follicle Stimulating Hormone (FSH) and LH:FSH ratio after 12 weeks of treatment.
The Phase 2a clinical trial was conducted in 48 patients, divided over 2 treatment groups of 24 patients each. One group received placebo while the other group received 180 mg of compound no 5 once daily (QD) for a period of 12 weeks. The Phase 2a trial was double blind and randomized. […] The study was conducted on an ambulatory basis where patients were asked to visit the clinical site on the first day of dosing and at weeks 3, 6, 9 and 12 during the treatment period with a follow-up visit 2-3 weeks after conclusion of dosing.
Blood draws for LH, FSH and TT were taken every visit between 2 and 8 hours after drug intake (baseline and week 3-6-12). At week 9 the blood samples were taken in the morning before drug intake (i.e. at trough PK concentrations for compound no 5). These blood draws were the basis for assessing the primary (TT) and secondary (LH, FSH, LH:FSH ratio) endpoints. The primary endpoint of Total Testosterone was measured according to GLP using an LC-MS/MS method.
PCOS is typically characterized by excessive ovarian androgen production, failure of ovulation, and slightly enlarged ovaries with numerous peripheral small follicles that appear as cysts. The disorder is commonly accompanied by infertility. Typically, the clinical features of PCOS are associated with hypersecretion of LH and androgens (TT) but with normal serum concentrations of FSH hormone. Laboratory examinations reveal elevated TT levels in about 50% of the patients, accompanied by an elevated LH:FSH ratio (>2) due to the imbalanced secretion of both hormones (a ratio of 1 is considered normal).

Turning to `Cc1nsc(-c2nnc3n2CCN(C(=O)c2ccc(F)cc2)[C@@H]3C)n1` [Compound 5, (R)-(4-fluorophenyl)(8-methyl-3-(3-methyl-1,2,4-thiadiazol-5-yl)-5,6-dihydro-[1,2,4]triazolo[4,3-a]pyrazin-7(8H)-yl)methanone], the “Exposure (% rPPB)” value in data set [1] was determined as 22%. In data set [2], the “circulating LH levels” value is given as “significantly suppressed circulating LH levels”. The estradiol levels result with plasma estradiol levels is listed as “significantly decreased estradiol levels”. The “pyrogenic response to feeding” value in the data set on ovariectomized ewes is reported as “not observed”. In the data set on postmenopausal women, the “Frequency of hot flashes vs placebo” value is given as “significantly reduced” and the “Score of hot flashes vs placebo” value is given as “significantly reduced”. In data set [3], the FSH secretion result was “preserved”, the LH result is “significant decrease”, the “LH:FSH vs placebo” value was “significantly reduced” and the TT vs placebo result is given as “significantly reduced”.
